The source of these data is patent US10899766B2, “Bridged piperidine derivatives” (Hoffmann-La Roche Inc., priority 2016, dated 2021).

The experiment deals with γ-secretase. Briefly: Cellular γ-secretase assay (inhibition of Aβ42 secretion, AlphaLisa). It is filed as cell-based. Particulars: Human neuroglioma H4 cells overexpressing human APP695 Swedish double mutation; 24 hr compound incubation; secreted Aβ42 in supernatant. The protocol:
Cellular γ-Secretase Assay
Human neuroglioma H4 cells overexpressing human APP695 with the Swedish double mutation (K595N/M596L) were plated at 30,000 cells/well/100 μl in 96-well plates in IMDM media containing 10% FCS, 0.2 mg/l Hygromycin B and incubated at 37° C., 5% CO2.
3-4 hr post plating, compounds are a diluted in media and 50 μl is added as 1.5-fold concentrate to achieve the final concentration. Compound incubation is performed for 24 hr. Final doses typically range from 4 μM down to 0.0013 μM in half-log steps resulting in a eight point dose response curve.
Appropriate controls using vehicle only and reference compound were applied to this assay. The final concentration of Me2SO was 0.4%.
After incubation at 37° C., 5% CO2, the supernatant was subjected to quantification of secreted Aβ42 by the means of an AlphaLisa assay kit (Human Amyloid beta 1-42 Kit: Cat # AL203C, Perkin Elmer). 20 μl of the cell culture supernatant was transferred to an assay plate. Then 10 μl of a mixture of the AlphaLisa coupled capture antibody and the biotinylated detection antibody was added and incubated for 3 hours at room temperature while softly shaking the assay plate. After a further addition of 20 μl of the Donor beads the assay plate was incubated for 30 min at room temperature and constant shaking without exposure to direct light.
The assay plate was then read on a Paradigm AlphaLisa Reader using the build-in program with excitation at 680 nm and emission at […].
The measured signals were then used to calculate IC50 values for inhibition of Aβ42 secretion by nonlinear regression fit analysis using XLfit 5.3 software (IDBS).
For orientation: Alpha assays give light when donor and acceptor beads are brought close together.
For the compound `Cc1cc(N2C[C@H]3CC[C@@H](C2)[C@@H]3Nc2nc3n(n2)CCCCN3c2ccc(F)c(F)c2)ncn1` [Example 23, 4-(3,4-difluorophenyl)-N-[(1R,5S,8S)-3-(6-methylpyrimidin-4-yl)-3-azabicyclo[3.2.1]octan-8-yl]-5,6,7,8-tetrahydro-[1,2,4]triazolo[1,5-a][1,3]diazepin-2-amine], the EC50 worked out at 23.3 nM.
Regarding `COc1cc(N2C[C@H]3CC[C@@H](C2)[C@@H]3Nc2nc3n(n2)CCCCN3c2ccc(F)c(F)c2)ncn1` [Example 24, 4-(3,4-difluorophenyl)-N-[(1R,5S,8S)-3-(6-methoxypyrimidin-4-yl)-3-azabicyclo[3.2.1]octan-8-yl]-5,6,7,8-tetrahydro-[1,2,4]triazolo[1,5-a][1,3]diazepin-2-amine], the EC50 amounted to 80.4 nM.
As for `Fc1ccc(N2CCCCn3nc(N[C@@H]4[C@@H]5CC[C@H]4CN(c4cnnc(Cl)c4)C5)nc32)cc1F` [Example 25, N-[(1R,5S,8S)-3-(6-chloropyridazin-4-yl)-3-azabicyclo[3.2.1]octan-8-yl]-4-(3,4-difluorophenyl)-5,6,7,8-tetrahydro-[1,2,4]triazolo[1,5-a][1,3]diazepin-2-amine], the figure is 23.4 nM.

Usually EC50 stands for the concentration at which the effect is half-maximal. A higher EC50 goes with a need for much substance.
